Results: US5591752A, “Quinoline derivative” (Ube Industries, Ltd., priority 1993, dated 1997)
pKi: −log10 of the molar value. Read-outs that look alike come from different tables or passages of the source.

Legend:
[1] = test system: Leukotriene D4-induced respiratory contraction; assay: Leukotriene D4-induced respiratory contraction test (Konzett and Rossler method); format: in vivo, guinea pig; details: Cavia porcellus, po, LTD4 0.5 μg/kg i.v. 1 hour later, anesthetized Hartley guinea pigs, read-out: Inhibition ratio
Description: Leukotriene D4 -induced respiratory contraction test
Hartley strain male guinea pigs (body weight: 400 to 600 g, supplied by Nihon SLC Co.) were used and all of them were bred under conditions of constant temperature (23°±2° C.) and constant humidity ([…]). The animals which had been fasted for 24 hours before experiments were used.
LTD4 (Funakoshi) dissolved in a physiological saline solution (Otsuka Seiyaku) was used. The compounds to be tested suspended in a 0.5% carboxymethyl cellulose aqueous solution were used.
The operation was conducted according to the method of Konzett and Rossler (Konzett, H. and Rossler, R. Naunyn Schmiedebergs (1940) Arch. Exp. Pathol. Pharmacol., 195, 71.). Each guinea pig was anesthetized with urethane (1.5 g/kg, i.p.) and then fixed in the supine position. A trachea was incised and a .phi. type cannula was inserted into the trachea and connected to a respirator (Shinano Seisakusho, SN-480-7) for small animals. Artificial respiration with positive pressure was conducted with a pressure loaded to a lung of 10 cm H2 O, an air supplying rate of 5 ml/stroke and 60 strokes/min. The air supplying rate to the trachea was measured by differential pressure transducers (Nihon Koden, TU-241T and TP-602T) connected to the cannula in the trachea and recorded on a rectigraph (Nihon Koden, WT-645G Model).
LTD4 (0.5 μg/kg/0.5 ml) was administered intravenously (i.v.) from a cannula inserted into a common jugular vein to cause shrinkage of a trachea. Subsequently, a compound to be tested was administered orally (p.o.) after 10 minutes and LTD4 was administered intravenously (i.v.) again after 1 hour to cause shrinkage of the trachea. The results are shown by using a ratio of inhibiting a trachea-shrinking reaction before administering the compound to be tested.

[2] = molecular target: T1, Leukotriene D4 (LTD4) receptor (Cavia porcellus, UniProt Q2NNR5); assay: Leukotriene D4 receptor binding test ([3H]ICI-198615 displacement, lung cell membrane fractions); details: guinea pig lung membranes, [3H]ICI-198615 about 0.2 nM, pKi=-log Ki; for pKi: pKi value; for Ki: read-out: pKi value (converted)
T1 construct: lung cell membrane fractions of guinea pigs were used; from tissue; host or cells: lung membrane fractions of Hartley strain male guinea pigs
T1 sequence (Q2NNR5 1-340): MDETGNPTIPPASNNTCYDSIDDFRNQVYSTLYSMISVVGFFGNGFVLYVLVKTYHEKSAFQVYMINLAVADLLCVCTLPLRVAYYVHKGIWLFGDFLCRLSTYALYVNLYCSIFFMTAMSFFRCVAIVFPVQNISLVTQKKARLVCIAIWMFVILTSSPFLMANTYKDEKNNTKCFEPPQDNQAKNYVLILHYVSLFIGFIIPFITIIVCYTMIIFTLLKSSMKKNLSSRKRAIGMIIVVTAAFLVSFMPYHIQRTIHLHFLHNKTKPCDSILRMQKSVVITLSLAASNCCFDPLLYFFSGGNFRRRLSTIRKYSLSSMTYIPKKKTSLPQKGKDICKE
Description: Leukotriene D4 receptor binding test
<Preparation of receptor samples>
As receptor samples, lung cell membrane fractions of guinea pigs were used. The membrane fractions were prepared according to the method of Ahn et al. (Ahn, H. S. & Barnett, A. (1986) Eur. J. Pharmacol., 127, 153.). After Hartley strain male guinea pigs (body weight: 400 to 500 g, supplied by Nihon SLC Co.) were killed by exsanguination, lungs were extracted and perfused with a physiological saline solution (Otsuka Seiyaku) from lung arteries. The extracted lungs were cut into pieces immediately or after the lungs were stored by freezing them at -80 ° C. A 10-fold amount of a buffer solution (pH 7.4) of 10 mM PIPES, 10 mM MgCl2, 10 mM CaCl2 and 50 mM NaCl was added thereto and the mixtures were made suspensions by a homogenizer (manufactured by Yamato Co., LP-41C Model). After the suspensions were filtered with gauze, the filtrates were centrifuged by an ultracentrifuge (manufactured by Hitachi Co., 70P-72 Model) with 50,000 g for 10 minutes, whereby membrane fractions were deposited. The membrane fractions were washed twice and then suspended in the same buffer solution to obtain receptor samples. Measurement of a protein concentration was conducted by the Lowry method (Lowry, O, H. et al. (1951) J. Biol. Chem., 193,265.) by using bovine serum albumin as a standard protein. The samples prepared (protein amount: 10 to 25 mg/ml) were stored by freezing them at -80° C. and used for experiments.
<Leukotriene D4 receptor binding test>
The leukotriene D4 (LTD4) receptor binding test was conducted according to the method of O'Sullivan et al. (O'Sullivan, B. P. & Mong, S. (1989) Mol. Pharmacol., 35, 795.). The receptor samples were diluted with a buffer solution (pH 7.4) of 10 mM PIPES, 10 mM MgCl2, 10 mM CaCl2 and 50 mM NaCl and 0.42 mg/ml in terms of a protein amount was used. As a labeling compound, [^3 H]ICI-198615 (produced by Du Pont Co., 60 Ci/mmol) which specifically binds to the LTD4 receptor was used. [^3 H]ICI-198615 and a compound to be tested were dissolved in dimethylsulfoxide and a 1/50 amount (2% by volume) of the solution was added to the receptor-diluted solutions, respectively. 500 μl of each reaction mixture was incubated at 25° C. for 40 minutes and then filtered with a glass fiber filter (Whatman, GF/B type) by using a cell harvester (manufactured by Brandel Co., M-30R Model). The filters were washed with 10 ml of an ice-cooled 100 mM NaCl-50 mM phosphate buffer solution (pH 7.5) and subjected to ultrasonic treatment in 9 ml of a liquid scintillator (manufactured by Nacalai Tesque, Co., Clear sol I) for 2 minutes. Thereafter, radioactivity was measured by a liquid scintillation counter (manufactured by Packard Co., 2000 CA Model). In a test of determining a dissociation constant of ICI-198615, 0.1 to 2 nM [^3 H]ICI-198615 and 10 μM non-radioactive ICI-198615 were used. In a test of determining inhibition constants of the respective compounds to be tested, [^3 H]ICI-198615 having a concentration of about 0.2 nM and the compounds each having a concentration of 0.1 pM to 0.1 mM were used.
<Data analysis of receptor binding test>
The dissociation constant (Kd) of ICI-198615 and the binding inhibition constants (Ki) of the respective compounds to be tested were determined by the following numerical formulae (A), (B) and (C).
wherein B: a concentration of a label [3H] which is bound to a receptor, Bmax: a maximum receptor-binding concentration of a label [^3 H], F: a concentration of a label [^3 H] which is not bound to a receptor, [L]: a concentration of a label [^3 H], IC50 : a concentration of a compound which inhibits 50% of binding of a label [^3 H] to a receptor and pKi: a logarithm, of a reciprocal of Ki.

Compound | inhibition in vivo at 1 mg/kg [1] [%] | pKi [2] | Ki [2] [nM]
O=C(O)CCSC1c2ccccc2COc2ccc(OCc3ccc4cc(F)c(Cl)cc4n3)cc21 (single isomer, unassigned; (+)) [Example 50, (+)-11-(2-Carboxyethylthio)-2-(7-chloro-6-fluoroquinolin-2-yl)methoxy-6,11-dihydrodibenz[b,e]oxepine] | 100 | 10.10 | –
c1ccc(Cc2nnn[nH]2)c(COc2ccc(OCc3ccc4ccccc4n3)cc2)c1 [Compound A, 5-[[2-[[4-(2-quinolinylmethoxy)phenoxy]methyl]phenyl]methyl]-1H-tetrazole, reference compound] | 51 | – | 6.31
O=C(O)CCSC1c2ccccc2COc2ccc(OCc3ccc4cc(F)c(Cl)cc4n3)cc21 (centres unmarked) [Example 1, 11-(2-Carboxyethylthio)-2-(7-chloro-6-fluoroquinolin-2-yl)methoxy-6,11-dihydrodibenz[b,e]oxepine] | 100 | – | –
O=C(O)CCSC1c2ccccc2COc2ccc(OCc3ccc4ccc(Cl)cc4n3)cc21 (centres unmarked) [Example 2, 11-(2-Carboxyethylthio)-2-(7-chloroquinolin-2-yl)methoxy-6,11-dihydrodibenz[b,e]oxepine] | 100 | 9.10 | –
O=C(O)CCSC1c2ccccc2COc2ccc(OCc3ccc4cc(F)ccc4n3)cc21 (centres unmarked) [Example 3, 11-(2-Carboxyethylthio)-2-(6-fluoroquinolin-2-yl)methoxy-6,11-dihydrodibenz[b,e]oxepine] | 100 | 8.50 | –
O=C(O)CCSC1c2ccccc2COc2ccc(OCc3ccc4ccc(F)cc4n3)cc21 (centres unmarked) [Example 4, 11-(2-Carboxyethylthio)-2-(7-fluoroquinolin-2-yl)methoxy-6,11-dihydrodibenz[b,e]oxepine] | 93 | 8.80 | –
COc1ccc2c(c1)COc1ccc(OCc3ccc4ccc(Cl)cc4n3)cc1C2SCCC(=O)O (centres unmarked) [Example 13, 11-(2-Carboxyethylthio)-2-(7-chloroquinolin-2-yl)methoxy-8-methoxy-6,11-dihydrodibenz[b,e]oxepine] | 67 | 9.10 | –
O=C(O)CSC1c2ccccc2COc2ccc(OCc3ccc4ccc(Cl)cc4n3)cc21 (centres unmarked) [Example 21, 11-Carboxymethylthio-2-(7-chloroquinolin-2-yl)methoxy-6,11-dihydrodibenz[b,e]oxepine] | 71 | 9.10 | –
O=C(O)COC1c2ccccc2COc2ccc(OCc3ccc4cc(Cl)ccc4n3)cc21 (centres unmarked) [Example 26, 11-Carboxymethoxy-2-(6-Chloroquinolin-2-yl)methoxy-6,11-dihydrodibenz[b,e]oxepine] | 87 | – | 1.58
